Nine compounds from patent US7524871B2, “Thrombin inhibitors” (University of Ljubljana, Faculty of Pharmacy, priority 2001, dated 2009) can be followed below.

Each structure is given as a SMILES string. Read-outs that look alike come from different tables or passages of the source.

The target of one test is T1, human thrombin (Homo sapiens, UniProt P00734).
T1 construct: Thrombin (human thrombin, 308 NIH units, Sigma); purchased Sigma
Kind of test: Enzyme assay for determination of the activity of thrombin inhibitors (chromogenic substrate S-2238). The class given is biochemical. The protocol: I. Enzyme Assay for Determination of the Activity of Thrombin Inhibitors
Thrombin cleaves amide bonds in a synthetic chromogenic substrate whereby […] coloured p-nitroaniline (p-NA) is released. The amount of p-NA produced is directly proportionate to the absorbance measured at a wavelength of 405 nm using a spectrophotometer. When thrombin inhibitor is added, the amidolytic activity of the enzyme decreases. The potency of the inhibitor is expressed by the inhibition constant (Ki).
The stock solution is pipetted into 0.5 mL aliquots and stored at −70° C. Immediately before use a working solution of thrombin of […] is prepared with HBSA buffer. The final concentration of thrombin in a microtiter plate is 0.5 NIH units/mL.
1 mM substrate solution is prepared, pipetted into 0.5 mL aliquots and stored at −20° C. Before use, 160 and 80 μM substrate solutions of the substrate are prepared with distilled water.
(§1) HBSA buffer, pH 7.5: 10 mM Hepes buffer (HEPES, Sigma), 150 mM NaCl and 0.1% (w/v) bovine serum albumin (98% bovine serum albumin, Sigma) are dissolved in bidistilled water. The pH is adjusted with 0.1 M NaOH solution.
Working solutions (final concentrations within the range 10 to 100 μM) are prepared with distilled water.
Measurements are carried out in the microtiter plate. 50 μL HBSA buffer, 50 μL inhibitor solution of different concentrations (for control 50 μL HBSA buffer) and 50 μL of thrombin solution are pipetted into the wells of a microtiter plate. The plate is incubated at a temperature of 25° C. for 15 minutes. After incubation 50 μL of the chromogenic substrate is added and the microtiter plate is placed in the spectrophotometer (Tecan, Sunrise).
(§2) Each measurement is carried out in triplicate and the result is the averaged value of three measurements.
(§3) 4. Determination of the Inhibition Constant (Ki)
Initial velocities of the reaction in the presence and absence of the inhibitor are measured. The change in the absorbance in the time unit (v) is calculated from the initial, linear part of the reaction. For competitive inhibitors it holds that
[formula] and it follows that
[formula] I=inhibitor concentration, S=substrate concentration, Km=Michaelis constant, vo=initial velocity of the reaction in the absence of inhibitor, vi=initial velocity of the reaction in the presence of inhibitor.
Measurements are carried out with two concentrations of the inhibitor and two concentrations of the substrate.

The target in a further test is T2, Trypsin (bovine) (Bos taurus, UniProt P00760).
T2 construct: purchased Sigma
T2 sequence (P00760 24-246): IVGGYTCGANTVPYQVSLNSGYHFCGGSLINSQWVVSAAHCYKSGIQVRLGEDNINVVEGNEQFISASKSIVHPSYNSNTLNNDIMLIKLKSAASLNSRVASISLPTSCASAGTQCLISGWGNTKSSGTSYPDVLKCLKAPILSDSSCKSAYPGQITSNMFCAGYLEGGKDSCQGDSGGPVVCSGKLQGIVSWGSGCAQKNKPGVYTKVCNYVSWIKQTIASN
The experiment in a line: Determination of selectivity of the inhibitor activity against thrombin with respect to trypsin inhibition (chromogenic substrate S-2222). The test is classed as biochemical. The note with it: for Ki: bovine trypsin 1 mU/mL, S-2222 100 and 50 μM, HBSA buffer pH 7.5; for Ki trypsin/ Ki thrombin: selectivity, ratio of Ki for trypsin to Ki for thrombin. The protocol:
II. Determination of Selectivity of the Inhibitor Activity Against Thrombin with Respect to Trypsin Inhibition
The inhibitory activity against thrombin is determined as described above. Trypsin inhibition is measured in the same manner as in determination of inhibitory activity for thrombin except that a different chromogenic substrate is used. For both enzymes Ki is calculated. Selectivity of the inhibitor is expressed as a ratio of Ki for trypsin to Ki for thrombin.
Trypsin (bovine, 6000 BAEE Units/mg protein, Sigma): A stock solution of trypsin with the activity of 300 U/mL is prepared, pipetted into 0.2 mL aliquots and stored at −70° C. Immediately before use, the stock solution is thawed and a working solution of 4 mU/mL is prepared with HBSA buffer. The final trypsin activity in a microtiter plate is 1 mU/mL.
Before use the stock solution is thawed and 400 and 200 μM substrate solutions are prepared The final concentrations of the substrate in the reaction mixture are 100 and 50 μM.
as §1
Working solutions (final concentrations in the range from 10 to 600 μM) are prepared with distilled water.
as §2
The procedure is the same as the procedure described for determination of the inhibitory activity against thrombin. The concentrations of the reagents described for determination of the inhibitory activity with respect to trypsin are used.
as §3
It is determined in the same manner as determination of Ki for thrombin.
5. Determination of the Selectivity
Ki for thrombin and Ki for trypsin are determined. The selectivity is defined as the ratio: […]

Where [1] appears, read: human thrombin 0.5 NIH units/mL, S-2238 40 and 20 μM, HBSA buffer pH 7.5, 25° C., read-out: Ki thrombin.

Regarding `Cc1ccc(NS(=O)(=O)Cc2ccccc2)c(=O)n1CC(=O)NCC1CCc2n[nH]cc2C1` (stereo not drawn), the results for the inhibition constant (Ki) at human thrombin (setting [1]) and at Trypsin (bovine) were 0.21 µM and 376 µM, respectively. Further, at Trypsin (bovine), the “Ki trypsin/ Ki thrombin” value is on record as 1790.
On to `Cc1ccc(NS(=O)(=O)Cc2ccccc2)c(=O)n1CC(=O)NC1CCc2nc(N)sc2C1` (stereo not drawn), for which, at human thrombin (setting [1]), the inhibitory constant (Ki) was determined as 0.16 µM. On Trypsin (bovine), the affinity, expressed as Ki, was 260 µM and the “Ki trypsin/ Ki thrombin” value amounted to 1625.
Regarding `Cc1ccc(NS(=O)(=O)Cc2ccc(F)cc2Cl)c(=O)n1CC(=O)NCC1CCc2n[nH]cc2C1` (stereo not drawn), the Ki on human thrombin (setting [1]) was 0.16 µM. Further, on Trypsin (bovine), the inhibitory constant (Ki) was more than 300 µM and the “Ki trypsin/ Ki thrombin” value is reported as more than 1875.
Compound `Cc1ccc(NS(=O)(=O)Cc2ccc(F)cc2Cl)c(=O)n1CC(=O)NC1CCc2nc(N)sc2C1` (stereo not drawn) yielded a Ki at human thrombin of 0.16 µM. Moreover, at Trypsin (bovine), the Ki was 193 µM and the “Ki trypsin/ Ki thrombin” value is listed as 1097.
In the case of `Cc1ccc(NS(=O)(=O)Cc2cccc(C(F)(F)F)c2)c(=O)n1CC(=O)NC1CCc2nc(N)sc2C1` (stereo not drawn), the Ki on human thrombin (setting [1]) turned out to be 0.65 µM. Further, at Trypsin (bovine), the inhibition constant Ki is more than 200 µM and the “Ki trypsin/ Ki thrombin” value was more than 300.
Taken in the same sequence, the figures for `Cc1ccc(NCCc2ccccc2)c(=O)n1CC(=O)NC1CCc2nc(N)sc2C1` (stereo not drawn) were 0.69 µM, 147 µM and 213.
On to `Cc1ccc(NCCc2ccccc2)c(=O)n1CC(=O)NCC1CCc2n[nH]cc2C1` (stereo not drawn), for which the inhibition constant Ki at human thrombin (setting [1]) was found to be 0.82 µM; at Trypsin (bovine), 421 µM. For the same compound, the “Ki trypsin/ Ki thrombin” value at Trypsin (bovine) came to 526.
Taken in the same sequence, the figures for `CCCCS(=O)(=O)Nc1ccc(C)n(CC(=O)NC2CCc3nc(N)sc3C2)c1=O` (stereo not drawn) were 1.3 µM, 50 µM and 37.
Consider `Cc1ccc(NS(=O)(=O)Cc2ccccc2)c(=O)n1CC(=O)NC1CCc2n[nH]cc2C1` (stereo not drawn), for which the Ki at human thrombin (setting [1]) came out at 4.7 µM. At Trypsin (bovine), the affinity, expressed as Ki, was 438 µM and the “Ki trypsin/ Ki thrombin” value is recorded as 93.
